# Reference: patent US5773573A, “HIV peptides” (priority 1994, dated 1998)
# Residues, ends and D or L forms follow the SMILES beside them.
# Assay: White cell and T cell subset counts (CD4, CD8, NK) in HIV infected patient given HEP1
# Type: in vivo, human
# Settings: patient three, oral HEP1 10 mg daily day 2-22
# Method: The objective of this study was to determine in an HIV infected patient if the induction of immunological tolerance to HEP1 could reduce immune activation and HIV infection. The design of the first clinical experiment was to orally administer HEP1 to the patient in daily 10 mg doses (the lower end of the preferred dose range). This was then followed approximately three months later with a subcutaneous administration of HEP1 at a higher dose of 140 mg. To assess the therapeutic benefit of HEP1, the following disease progression markers were measured by taking blood samples before, during and after each trial and determining: HIV levels by a p24 antigen assay, HIV infectivity by a cellular TCID assay and immune activation by quantitating levels of various lymphocytes.
# T cell subsets were measured by adding a whole blood sample to a 4.5 ml tube containing EDTA and staining with monoclonal antibodies to CD3, CD4 and CD8. The percentage of T cells in Peripheral Blood Lymphocytes were determined by flow-cytometric procedures. The numbers of CD4 and CD8 T cells were determined by obtaining total and differential white-cell counts and multiplying by the appropriate factor obtained on flow cytometry.
# The following markers of HIV disease progression were assayed: p24Ag (the concentration of HIV p24 protein in picogram/ml in the blood), TCID (the infectivity of the HIV in the cells of blood sample measured by an in vitro cell culture assay in which a serial dilution of the sample was mixed with activated uninfected PBMC and the level of HIV infection determined by p24Ag assay), total white count (immune activation measured by the number of white cells per mm^3), CD4 (the number of CD4 positive cells per mm^3), CD8 (the number of CD8 positive cells per mm^3), NK (the number of Natural Killer cells per mm^3), Lymphocytes (the number of cells per mm^3), Monocytes (the number of cells per mm^3), and Granulocytes (the number of cells per mm^3). Normalised data was calculated by dividing each data point by the value of its data series on day 1 of the trail and multiplying by 100.
structure (smiles),measurement,setting,value
"CC(C)[C@H](NC(=O)[C@@H](NC(=O)[C@H](CCC(=O)O)NC(=O)[C@H](CCCNC(=N)N)NC(=O)[C@H](CCCNC(=N)N)NC(=O)[C@H](CCCCN)NC(=O)[C@H](CCCCN)NC(=O)[C@H](CCC(=O)O)NC(=O)[C@@H](N)[C@@H](C)O)[C@@H](C)O)C(=O)N[C@@H](CCC(=O)O)C(=O)N[C@@H](CCCNC(=N)N)C(=O)N[C@@H](CCC(=O)O)C(=O)N[C@@H](CCCCN)C(=O)N[C@@H](CCC(=O)O)C(=O)O [HEP1, NH2 ThrGluLysLysArgArgGluThrValGluArgGluLysGluCOOH] (H-TEKKRRETVEREKE-OH)",% Granulocytes,"day 1, before first dose",76.1%
same,"% Granulocytes, normalised data (day 1 = 100)","day 1, before first dose",100
same,% Lymphocytes,"day 1, before first dose",17.8%
same,"% Lymphocytes, normalised data (day 1 = 100)","day 1, before first dose",100
same,% Monocytes,"day 1, before first dose",6.1%
same,"% Monocytes, normalised data (day 1 = 100)","day 1, before first dose",100
same,CD4,"day 1, before first dose",80 cells per mm^3
same,"CD4, normalised data (day 1 = 100)","day 1, before first dose",100
same,CD8,"day 1, before first dose",900 cells per mm^3
same,"CD8, normalised data (day 1 = 100)","day 1, before first dose",100
same,Granulocytes,"day 1, before first dose",6230 cells per mm^3
same,Lymphocytes,"day 1, before first dose",1480 cells per mm^3
same,"Lymphocytes, normalised data (day 1 = 100)","day 1, before first dose",100
same,Monocytes,"day 1, before first dose",570 cells per mm^3
same,"Monocytes, normalised data (day 1 = 100)","day 1, before first dose",100
same,NK,"day 1, before first dose",30 cells per mm^3
same,"NK, normalised data (day 1 = 100)","day 1, before first dose",100
same,White count,"day 1, before first dose",8200 cells per mm^3
same,"White count, normalised data (day 1 = 100)","day 1, before first dose",100
same,% Granulocytes,"day 7, during treatment",81.4%
same,"% Granulocytes, normalised data (day 1 = 100)","day 7, during treatment",107
same,% Lymphocytes,"day 7, during treatment",15.5%
same,"% Lymphocytes, normalised data (day 1 = 100)","day 7, during treatment",87
same,% Monocytes,"day 7, during treatment",3.1%
same,"% Monocytes, normalised data (day 1 = 100)","day 7, during treatment",51
same,CD4,"day 7, during treatment",80 cells per mm^3
same,"CD4, normalised data (day 1 = 100)","day 7, during treatment",100
same,CD8,"day 7, during treatment",850 cells per mm^3
same,"CD8, normalised data (day 1 = 100)","day 7, during treatment",94
same,Granulocytes,"day 7, during treatment",6560 cells per mm^3
same,"Granulocytes, normalised data (day 1 = 100)","day 7, during treatment",105
same,Lymphocytes,"day 7, during treatment",1150 cells per mm^3
same,"Lymphocytes, normalised data (day 1 = 100)","day 7, during treatment",78
same,Monocytes,"day 7, during treatment",490 cells per mm^3
same,"Monocytes, normalised data (day 1 = 100)","day 7, during treatment",86
same,NK,"day 7, during treatment",30 cells per mm^3
same,"NK, normalised data (day 1 = 100)","day 7, during treatment",100
same,White count,"day 7, during treatment",8200 cells per mm^3
same,"White count, normalised data (day 1 = 100)","day 7, during treatment",100
same,% Granulocytes,"day 14, during treatment",76.8%
same,"% Granulocytes, normalised data (day 1 = 100)","day 14, during treatment",101
same,% Lymphocytes,"day 14, during treatment",16.8%
same,"% Lymphocytes, normalised data (day 1 = 100)","day 14, during treatment",94
same,% Monocytes,"day 14, during treatment",6.4%
same,"% Monocytes, normalised data (day 1 = 100)","day 14, during treatment",105
same,CD4,"day 14, during treatment",90 cells per mm^3
same,"CD4, normalised data (day 1 = 100)","day 14, during treatment",113
same,CD8,"day 14, during treatment",900 cells per mm^3
same,"CD8, normalised data (day 1 = 100)","day 14, during treatment",100
same,Granulocytes,"day 14, during treatment",5620 cells per mm^3
same,"Granulocytes, normalised data (day 1 = 100)","day 14, during treatment",90
same,Lymphocytes,"day 14, during treatment",1460 cells per mm^3
same,"Lymphocytes, normalised data (day 1 = 100)","day 14, during treatment",99
same,Monocytes,"day 14, during treatment",620 cells per mm^3
same,"Monocytes, normalised data (day 1 = 100)","day 14, during treatment",109
same,NK,"day 14, during treatment",40 cells per mm^3
same,"NK, normalised data (day 1 = 100)","day 14, during treatment",133
same,White count,"day 14, during treatment",7700 cells per mm^3
same,"White count, normalised data (day 1 = 100)","day 14, during treatment",94
same,% Granulocytes,"day 21, during treatment",76.2%
same,"% Granulocytes, normalised data (day 1 = 100)","day 21, during treatment",100
same,% Lymphocytes,"day 21, during treatment",18.6%
same,"% Lymphocytes, normalised data (day 1 = 100)","day 21, during treatment",104
same,% Monocytes,"day 21, during treatment",5.2%
same,"% Monocytes, normalised data (day 1 = 100)","day 21, during treatment",85
same,CD4,"day 21, during treatment",80 cells per mm^3
same,"CD4, normalised data (day 1 = 100)","day 21, during treatment",100
same,CD8,"day 21, during treatment",910 cells per mm^3
same,"CD8, normalised data (day 1 = 100)","day 21, during treatment",101
same,Granulocytes,"day 21, during treatment",5100 cells per mm^3
same,"Granulocytes, normalised data (day 1 = 100)","day 21, during treatment",82
same,Lymphocytes,"day 21, during treatment",1160 cells per mm^3
same,"Lymphocytes, normalised data (day 1 = 100)","day 21, during treatment",78
same,Monocytes,"day 21, during treatment",540 cells per mm^3
same,"Monocytes, normalised data (day 1 = 100)","day 21, during treatment",95
same,NK,"day 21, during treatment",40 cells per mm^3
same,"NK, normalised data (day 1 = 100)","day 21, during treatment",133
same,White count,"day 21, during treatment",6800 cells per mm^3
same,"White count, normalised data (day 1 = 100)","day 21, during treatment",83
same,% Granulocytes,"day 28, after treatment",74.5%
same,"% Granulocytes, normalised data (day 1 = 100)","day 28, after treatment",98
same,% Lymphocytes,"day 28, after treatment",20%
same,"% Lymphocytes, normalised data (day 1 = 100)","day 28, after treatment",112
same,% Monocytes,"day 28, after treatment",5.5%
same,"% Monocytes, normalised data (day 1 = 100)","day 28, after treatment",90
same,CD4,"day 28, after treatment",80 cells per mm^3
same,"CD4, normalised data (day 1 = 100)","day 28, after treatment",100
same,CD8,"day 28, after treatment",730 cells per mm^3
same,"CD8, normalised data (day 1 = 100)","day 28, after treatment",81
same,Granulocytes,"day 28, after treatment",4020 cells per mm^3
same,"Granulocytes, normalised data (day 1 = 100)","day 28, after treatment",65
same,Lymphocytes,"day 28, after treatment",1050 cells per mm^3
same,"Lymphocytes, normalised data (day 1 = 100)","day 28, after treatment",71
same,Monocytes,"day 28, after treatment",440 cells per mm^3
same,"Monocytes, normalised data (day 1 = 100)","day 28, after treatment",77
same,NK,"day 28, after treatment",20 cells per mm^3
same,"NK, normalised data (day 1 = 100)","day 28, after treatment",67
same,White count,"day 28, after treatment",5500 cells per mm^3
same,"White count, normalised data (day 1 = 100)","day 28, after treatment",67
same,% Granulocytes,"day-69, before treatment",80.4%
same,"% Granulocytes, normalised data (day 1 = 100)","day-69, before treatment",106
same,% Lymphocytes,"day-69, before treatment",15.4%
same,"% Lymphocytes, normalised data (day 1 = 100)","day-69, before treatment",87
same,% Monocytes,"day-69, before treatment",4.2%
same,"% Monocytes, normalised data (day 1 = 100)","day-69, before treatment",96
same,CD4,"day-69, before treatment",90 cells per mm^3
same,"CD4, normalised data (day 1 = 100)","day-69, before treatment",113
same,CD8,"day-69, before treatment",850 cells per mm^3
same,"CD8, normalised data (day 1 = 100)","day-69, before treatment",94
same,Granulocytes,"day-69, before treatment",6000 cells per mm^3
same,"Granulocytes, normalised data (day 1 = 100)","day-69, before treatment",96
same,Lymphocytes,"day-69, before treatment",1260 cells per mm^3
same,"Lymphocytes, normalised data (day 1 = 100)","day-69, before treatment",85
same,Monocytes,"day-69, before treatment",630 cells per mm^3
same,"Monocytes, normalised data (day 1 = 100)","day-69, before treatment",111
same,NK,"day-69, before treatment",20 cells per mm^3
